The data set can be described thus: Solubility in acetonitrile, calculated based on the total solvent used to give a solution. Format: physicochemical. To be noted: organic solvent or mixture, thermodynamic from solid.

Where a name gives a salt, the structure may show the parent alone.

This passage reports solubility results from patent publication US20110281911A1, “NOVEL FORMS OF EPERISONE” (Bionevia Pharmaceuticals, Inc., priority 2008, published 2011).

One may read the solubility as the dissolved amount per volume that the medium holds. For `CCc1ccc(C(=O)C(C)CN2CCCCC2)cc1` (single isomer, unassigned) [substantially enantiopure crystalline eperisone hydrochloride, eperisone hydrochloride], the solubility was > 11 mg/mL.
